In patent publication US8946438B2, “Benzamides, production thereof, and use thereof as medicaments” (Boehringer Ingelheim International GmbH, priority 2008, dated 2015):

Molecular target: p38 MAP-kinase (Homo sapiens, UniProt Q16539)
Assay: Enzymatic assay: inhibition of p38 MAP-kinase (phosphorylation of GST-tagged ATF2, chemoluminescence bead readout)
Assay type: biochemical
Settings: inhibitor 1 μM; activated p38 MAP-kinase 1 nM; 4 h preincubation; ATP 100 μM; ATF2 10 nM; read-out: % inhibitory effect at 1 μM
Procedure, shortened: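 Activated human p38 MAP-kinase (1 nM) preincubated 4 h at ambient temperature with compound at 1 μM in HEPES pH 7, MgCl2, DTT, Tween20. Then reacted 1 h with GST-ATF2 (10 nM) and ATP (100 μM). Phospho-ATF2 read by bead chemoluminescence at 520-620 nm, given as % inhibition at 1 μM versus kinase-free background.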

Chain of p38 MAP-kinase (Q16539 whole entry): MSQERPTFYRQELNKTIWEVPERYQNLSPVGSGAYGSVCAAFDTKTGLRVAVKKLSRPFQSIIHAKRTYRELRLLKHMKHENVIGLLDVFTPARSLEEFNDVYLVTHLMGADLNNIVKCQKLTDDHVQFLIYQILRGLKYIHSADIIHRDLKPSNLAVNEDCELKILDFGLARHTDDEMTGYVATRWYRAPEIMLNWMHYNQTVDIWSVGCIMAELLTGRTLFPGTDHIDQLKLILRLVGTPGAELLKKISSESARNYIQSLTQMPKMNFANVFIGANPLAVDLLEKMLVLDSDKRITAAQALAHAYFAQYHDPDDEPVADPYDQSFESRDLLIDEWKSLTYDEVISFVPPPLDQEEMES

Compound | inhibition at 1 µM
COc1c(NC(=O)c2ccc(C)c(Oc3ccnc(CNC4CCN(C)C4)n3)c2)cc(C(C)(C)C)cc1NS(C)(=O)=O (centres unmarked) [8(23), N-(5-tert-butyl-3-methanesulphonylamino-2-methoxy-phenyl)-4-methyl-3-{2-[(1-methyl-pyrrolidin-3-ylamino)-methyl]-pyrimidin-4-yloxy}-benzamide] | 97.8%
COc1c(NC(=O)c2ccc(C)c(Oc3ccnc(CN(C)CCN(C)C)n3)c2)cc(C(C)(C)C)cc1NS(C)(=O)=O [8(24), N-(5-tert-butyl-3-methanesulphonylamino-2-methoxy-phenyl)-3-(2-{[N-(2-dimethylamino-ethyl)-N-methyl-amino]-methyl}-pyrimidin-4-yloxy)-4-methyl-benzamide] | 92.4%
COc1c(NC(=O)c2ccc(C)c(Oc3ccnc(CN(C)CCN(C)C)c3)c2)cc(C(C)(C)C)cc1NS(C)(=O)=O [8(26), N-(5-tert-butyl-3-methanesulphonylamino-2-methoxy-phenyl)-3-(2-{[(2-dimethylamino-ethyl)-methyl-amino]-methyl}-pyridin-4-yloxy)-4-methyl-benzamide] | 97.7%
COc1c(NC(=O)c2ccc(C)c(Oc3cc(CNCCN(C)C)ncn3)c2)cc(C(C)(C)C)cc1NS(C)(=O)=O [8(29), N-(5-tert-butyl-3-methanesulphonylamino-2-methoxy-phenyl)-3-{6-[(2-dimethylamino-ethylamino)-methyl]-pyrimidin-4-yloxy}-4-methyl-benzamide] | 89%
COc1c(NC(=O)c2ccc(C)c(Oc3cc(CN(C)CCN(C)C)ncn3)c2)cc(C(C)(C)C)cc1NS(C)(=O)=O [8(30), N-(5-tert-butyl-3-methanesulphonylamino-2-methoxy-phenyl)-3-(6-{[(2-dimethylamino-ethyl)-methyl-amino]-methyl}-pyrimidin-4-yloxy)-4-methyl-benzamide] | 91.3%
COc1c(NC(=O)c2ccc(Cl)c(Oc3cc(CNCCN(C)C)ncn3)c2)cc(C(C)(C)C)cc1NS(C)(=O)=O [8(31), N-(5-tert-butyl-3-methanesulphonylamino-2-methoxy-phenyl)-4-chloro-3-{6-[(2-dimethylamino-ethylamino)-methyl]-pyrimidin-4-yloxy}-benzamide] | 86.5%
COc1c(NC(=O)c2ccc(Cl)c(Oc3cc(CN(C)CCN(C)C)ncn3)c2)cc(C(C)(C)C)cc1NS(C)(=O)=O [8(32), N-(5-tert-butyl-3-methanesulphonylamino-2-methoxy-phenyl)-4-chloro-3-(6-{[(2-dimethylamino-ethyl)-methyl-amino]-methyl}-pyrimidin-4-yloxy)-benzamide] | 92.6%
COc1c(NC(=O)c2ccc(Cl)c(Oc3ccnc(CN(C)CCN(C)C)c3)c2)cc(C(C)(C)C)cc1NS(C)(=O)=O [8(33), N-(5-tert-butyl-3-methanesulphonylamino-2-methoxy-phenyl)-4-chloro-3-(2-{[(2-dimethylamino-ethyl)-methyl-amino]-methyl}-pyridin-4-yloxy)-benzamide] | 97.1%
COc1c(NC(=O)c2ccc(Cl)c(Oc3ccnc(CN(C)CCN(C)C)n3)c2)cc(C(C)(C)C)cc1NS(C)(=O)=O [8(36), N-(5-tert-butyl-3-methanesulphonylamino-2-methoxy-phenyl)-4-chloro-3-(2-{[(2-dimethylamino-ethyl)-methyl-amino]-methyl}-pyrimidin-4-yloxy)-benzamide] | 82.6%
COc1c(NC(=O)c2ccc(Cl)c(Oc3ccnc(CNCCN(C)C)n3)c2)cc(C(C)(C)C)cc1NS(C)(=O)=O [8(37), N-(5-tert-butyl-3-methanesulphonylamino-2-methoxy-phenyl)-4-chloro-3-{2-[(2-dimethylamino-ethylamino)-methyl]-pyrimidin-4-yloxy}-benzamide] | 91.3%
COc1c(NC(=O)c2ccc(Cl)c(Oc3cc(CN4CCCN(C)CC4)ncn3)c2)cc(C(C)(C)C)cc1NS(C)(=O)=O [8(38), N-(5-tert-butyl-3-methanesulphonylamino-2-methoxy-phenyl)-4-chloro-3-[6-(4-methyl-[1,4]diazepan-1-ylmethyl)-pyrimidin-4-yloxy]-benzamide] | 98.8%
COc1c(NC(=O)c2ccc(C)c(Oc3ccnc(CC4CCN(C)CC4)c3)c2)cc(C(C)(C)C)cc1NS(C)(=O)=O [9(2), N-(5-tert-butyl-3-methanesulphonylamino-2-methoxy-phenyl)-4-methyl-3-[2-(1-methyl-piperidin-4-ylmethyl)-pyridin-4-yloxy]-benzamide] | 98.5%

Further lines, results first:

inhibition at 1 µM | Compound
98.6% | COc1c(NC(=O)c2ccc(C)c(Oc3ccnc(CNCCN(C)C)n3)c2)cc(C(C)(C)C)cc1NS(C)(=O)=O [8(25), N-(5-tert-butyl-3-methanesulphonylamino-2-methoxy-phenyl)-3-{2-[(2-dimethylamino-ethylamino)-methyl]-pyrimidin-4-yloxy}-4-methyl-benzamide]
98.4% | COc1c(NC(=O)c2ccc(C)c(Oc3ccnc(CNCCN(C)C)c3)c2)cc(C(C)(C)C)cc1NS(C)(=O)=O [8(27), N-(5-tert-butyl-3-methanesulphonylamino-2-methoxy-phenyl)-3-{2-[(2-dimethylamino-ethylamino)-methyl]-pyridin-4-yloxy}-4-methyl-benzamide]
81.8% | COc1c(NC(=O)c2cc(C)cc(Oc3ccnc(CN4CCN(C)CC4)n3)c2)cc(C(C)(C)C)cc1NS(C)(=O)=O [8(28), N-(5-tert-butyl-3-methanesulphonylamino-2-methoxy-phenyl)-3-methyl-5-[2-(4-methyl-piperazin-1-ylmethyl)-pyrimidin-4-yloxy]-benzamide]
99.3% | COc1c(NC(=O)c2ccc(Cl)c(Oc3ccnc(CNCCN(C)C)c3)c2)cc(C(C)(C)C)cc1NS(C)(=O)=O [8(34), N-(5-tert-butyl-3-methanesulphonylamino-2-methoxy-phenyl)-4-chloro-3-{2-[(2-dimethylamino-ethylamino)-methyl]-pyridin-4-yloxy}-benzamide]
98.6% | COc1c(NC(=O)c2ccc(Cl)c(Oc3ccnc(CN4CCCN(C)CC4)n3)c2)cc(C(C)(C)C)cc1NS(C)(=O)=O [8(35), N-(5-tert-butyl-3-methanesulphonylamino-2-methoxy-phenyl)-4-chloro-3-[2-(4-methyl-[1,4]diazepan-1-ylmethyl)-pyrimidin-4-yloxy]-benzamide]
98.9% | COc1c(NC(=O)c2ccc(Cl)c(Oc3ccnc(CN4CCCN(C)CC4)c3)c2)cc(C(C)(C)C)cc1NS(C)(=O)=O [8(39), N-(5-tert-butyl-3-methanesulphonylamino-2-methoxy-phenyl)-4-chloro-3-[2-(4-methyl-[1,4]diazepan-1-ylmethyl)-pyridin-4-yloxy]-benzamide]
99.9% | COc1c(NC(=O)c2ccc(C)c(Oc3ccnc(CC4CCN(C)CC4)n3)c2)cc(C(C)(C)C)cc1NS(C)(=O)=O [9(1), N-(5-tert-butyl-3-methanesulphonylamino-2-methoxy-phenyl)-4-methyl-3-[2-(1-methyl-piperidin-4-ylmethyl)-pyrimidin-4-yloxy]-benzamide]
99.4% | CCCCS(=O)(=O)Nc1cc(C(C)(C)C)cc(NC(=O)c2ccc(C)c(Oc3ccnc(CC4CCNCC4)c3)c2)c1OC [11(1), N-[3-(butan-1-sulphonylamino)-5-tert-butyl-2-methoxy-phenyl]-4-methyl-3-(2-piperidin-4-ylmethyl-pyridin-4-yloxy)-benzamide]
